Molecules are shown by their SMILES. Some results are limits rather than exact numbers.

In the first data set the target is T1, human orexin-2 receptor (OX2R) (Homo sapiens, UniProt O43614).
T1 construct: expressed in transfected cells
T1 sequence (O43614 1-444): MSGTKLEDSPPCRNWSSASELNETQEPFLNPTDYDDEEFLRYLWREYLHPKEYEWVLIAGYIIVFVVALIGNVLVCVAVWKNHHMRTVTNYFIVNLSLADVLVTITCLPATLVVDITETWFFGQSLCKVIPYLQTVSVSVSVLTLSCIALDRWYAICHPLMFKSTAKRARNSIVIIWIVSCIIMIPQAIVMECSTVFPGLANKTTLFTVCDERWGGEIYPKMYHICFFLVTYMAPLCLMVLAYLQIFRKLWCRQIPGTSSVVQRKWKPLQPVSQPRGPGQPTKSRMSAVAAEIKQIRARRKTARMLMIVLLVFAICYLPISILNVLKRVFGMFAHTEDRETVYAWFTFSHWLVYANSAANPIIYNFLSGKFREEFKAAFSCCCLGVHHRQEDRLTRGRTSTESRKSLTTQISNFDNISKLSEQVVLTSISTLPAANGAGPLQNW
The experiment in a line: Human OX2R IP1 assay. To be noted: T-Rex CHO cells stably overexpressing human OX2R, IP1 accumulation, 1 hr at 37 degrees C; mean EC50; ∧ = racemic mixture. Format: cell-based. The procedure: T-Rex CHO cells stably overexpressing the human orexin-2 receptor (OX2R) were induced overnight with 1 μg/mL of doxycycline in a T225 flask. 24 hours post induction, cells were lifted with accutase and plated into a 384-well proxy plate at 30,000 cells/well. Cells were then treated with different test compounds in 1× stimulation buffer containing 10 mM Hepes, 1 mM CaCl2), 0.5 mM MgCl2, 4.2 mM KCl, 146 mM NaCl, 5.5 mM glucose, and 50 mM LiCl, pH 7.4, for 1 hr at 37 degrees C. Following incubation, the reaction was terminated by the addition of detection mix, which is composed of IP1-d2 and anti-IP1-cryptate diluted in lysis buffer as well as 1× stimulation buffer. The plates were allowed to incubate for 1 hour at room temperature and were then read in the EnVision® multimode plate reader, measuring inositol phosphate levels.
Cisbio IP1 is a cell-based functional assay quantifying the accumulation of inositol monophosphate (IP), a metabolite released as a result of orexin 2 receptor activation through the phospholipase C-Gq signaling pathway. This is a competitive immunoassay in which the IP1 produced by the cells upon receptor activation competes with the IP1 analog coupled to the d2 fluorophore (acceptor) for binding to an anti-IP1 monoclonal antibody labeled with Eu cryptate (donor). The measured HTRF-FRET based signal is inversely proportional to the IP1 concentration produced.
The EC50 values reported in Table 2 were obtained according to the human OX2R IP1 assay described above. Data are the mean EC50 values ±S.E.M. The compound methyl (2R,3S)-3-((methylsulfonyl)amino)-2-(((cis-4-phenylcyclohexyl)oxy)methyl)-piperidine-1-carboxylate is a reference compound which is disclosed in Example 5 of PCT publication no. WO2017/135306.
Regarding `CS(=O)(=O)N[C@H]1CCCN2C(=O)CCOc3ccccc3[C@H]3CC[C@H](CC3)OC[C@@H]12` [Compound 1], the EC50 was < 100 nM. Take `CS(=O)(=O)N[C@H]1CCCN2C(=O)COc3ccccc3[C@H]3CC[C@H](CC3)OC[C@@H]12` [Compound 2]: the concentration giving a half-maximal response (EC50) was < 100 nM. Regarding `CS(=O)(=O)N[C@H]1CCCN2C(=O)CCCCOc3ccccc3[C@H]3CC[C@H](CC3)OC[C@@H]12` [Compound 3], the concentration giving a half-maximal response (EC50) is > 1000 nM. Still for that read-out and setting: as for `CS(=O)(=O)N[C@H]1CCCN2C(=O)CCCOc3ccccc3[C@H]3CC[C@H](CC3)OC[C@@H]12` [Compound 4], the figure is < 100 nM; as for `CS(=O)(=O)N[C@H]1CCCN2CCCOc3ccccc3[C@H]3CC[C@H](CC3)OC[C@@H]12` [Compound 5], > 1000 nM. With `CS(=O)(=O)N[C@H]1CCCN2CCOc3ccccc3[C@H]3CC[C@H](CC3)OC[C@@H]12` [Compound 6], the 50% effective concentration (EC50) is < 100 nM. As to `CS(=O)(=O)N[C@H]1CCN2C(=O)COc3ccccc3[C@H]3CC[C@H](CC3)OC[C@@H]12` [Compound 7], the EC50 is < 100 nM. The same measure, in the same setting: the value for `CS(=O)(=O)N[C@H]1CCCN2C(=O)CCc3ccccc3[C@H]3CC[C@H](CC3)OC[C@@H]12` [Compound 10] was 100 to 1000 nM; that for `CS(=O)(=O)N[C@H]1CCCN2C(=O)COc3c(F)cccc3[C@H]3CC[C@H](CC3)OC[C@@H]12` [Compound 11] was < 100 nM. On the same count and under the same terms, the value for `CS(=O)(=O)N[C@H]1CCCN2C(=O)COc3c(F)cc(F)cc3[C@H]3CC[C@H](CC3)OC[C@@H]12` [Compound 12] was < 100 nM; that for `CS(=O)(=O)N[C@H]1CCCN2CCOc3c(F)cccc3[C@H]3CC[C@H](CC3)OC[C@@H]12` [Compound 13] was 100 to 1000 nM; that for `CS(=O)(=O)N[C@H]1CCN2C(=O)COc3ncccc3[C@H]3CC[C@H](CC3)OC[C@@H]12` [Compound 18] was 100 to 1000 nM. Same read-out and setting: as for `CC1(C)Oc2ccccc2[C@H]2CC[C@H](CC2)OC[C@H]2[C@@H](NS(C)(=O)=O)CCCN2C1=O` [Compound 36], the figure is < 100 nM. `CS(=O)(=O)N[C@H]1CCN2CCOc3ccccc3[C@H]3CC[C@H](CC3)OC[C@@H]12` [Compound 39]: the concentration giving a half-maximal response (EC50) is > 1000 nM. Turning to `CS(=O)(=O)N[C@H]1CCCN2C(=O)C(F)(F)Oc3ccccc3[C@H]3CC[C@H](CC3)OC[C@@H]12` [Compound 40], the EC50 is < 100 nM. With `CS(=O)(=O)N[C@H]1CCCN2CC(F)(F)Oc3ccccc3[C@H]3CC[C@H](CC3)OC[C@@H]12` [Compound 41], the 50% effective concentration (EC50) is > 1000 nM. On the same count and under the same terms, as for `CS(=O)(=O)N[C@H]1CCN2C(=O)COc3c(F)cccc3[C@H]3CC[C@H](CC3)OC[C@@H]12` [Compound 42], the figure is < 100 nM; as for `CS(=O)(=O)N[C@H]1CCN2C(=O)COc3c(F)cc(F)cc3[C@H]3CC[C@H](CC3)OC[C@@H]12` [Compound 43], < 100 nM.

With `CC1(C)CN2CCC[C@H](NS(C)(=O)=O)[C@@H]2CO[C@H]2CC[C@H](CC2)c2ccccc2O1` [Compound 44], the EC50 fell in the range of 100 to 1000 nM. Same read-out and setting: as for `CS(=O)(=O)N[C@H]1CCCN2C(=O)COc3ncccc3[C@H]3CC[C@H](CC3)OC[C@@H]12` [Compound 46], the figure is < 100 nM. Consider `CS(=O)(=O)N[C@H]1CCCN2C(=O)COc3ccc(Cl)cc3[C@H]3CC[C@H](CC3)OC[C@@H]12` [Compound 51], for which the EC50 is < 100 nM.

For `CS(=O)(=O)N[C@H]1CCCN2C(=O)C(F)(F)Oc3c(F)cc(F)cc3[C@H]3CC[C@H](CC3)OC[C@@H]12` [Compound 52], the concentration giving a half-maximal response (EC50) is < 100 nM. Still for that read-out and setting: the value for `CS(=O)(=O)N[C@H]1CCN2C(=O)C(F)(F)Oc3ccccc3[C@H]3CC[C@H](CC3)OC[C@@H]12` [Compound 53] was < 100 nM; that for `CS(=O)(=O)N[C@H]1CCN2C(=O)C(F)(F)Oc3c(F)cc(F)cc3[C@H]3CC[C@H](CC3)OC[C@@H]12` [Compound 54] was < 100 nM. `CS(=O)(=O)N[C@H]1CCCN2C(=O)COc3nccnc3[C@H]3CC[C@H](CC3)OC[C@@H]12` [Compound 55]: the concentration for a half-maximal effect (EC50) was < 100 nM. On the same count and under the same terms, the value for `CS(=O)(=O)N[C@H]1CCCN2C(=O)COc3nnccc3[C@H]3CC[C@H](CC3)OC[C@@H]12` [Compound 56] was 100 to 1000 nM; that for `CS(=O)(=O)N[C@H]1CCCN2C(=O)COc3ccc(Br)cc3[C@H]3CC[C@H](CC3)OC[C@@H]12` [Compound 57] was < 100 nM. On the same count and under the same terms, the value for `CS(=O)(=O)N[C@H]1CCCN2CCOc3c(F)cc(F)cc3[C@H]3CC[C@H](CC3)OC[C@@H]12` [Compound 58] was 100 to 1000 nM; that for `CS(=O)(=O)N[C@H]1CCCN2CC(F)(F)Oc3c(F)cc(F)cc3[C@H]3CC[C@H](CC3)OC[C@@H]12` [Compound 59] was 100 to 1000 nM.

On to `CS(=O)(=O)N[C@H]1CCCN2CCOc3ccc(Cl)cc3[C@H]3CC[C@H](CC3)OC[C@@H]12` [Compound 61], for which the EC50 is > 1000 nM. In the case of `CS(=O)(=O)N[C@H]1CCCN2C(=O)COc3ncc(F)cc3[C@H]3CC[C@H](CC3)OC[C@@H]12` [Compound 64], the 50% effective concentration (EC50) was < 100 nM. Turning to `CS(=O)(=O)N[C@H]1CCCN2CCOc3ncccc3[C@H]3CC[C@H](CC3)OC[C@@H]12` [Compound 65], the EC50 fell in the range of 100 to 1000 nM.

The subject of another data set is human hepatocytes. Nature of the data set: Hepatocytes stability assay (human hepatocytes). Format: in vitro ADME. To be noted: scaled hepatic clearance divided by liver blood flow, fu assumed unity. Here is the method: (§1) In vitro metabolic stability was assessed using cryopreserved hepatocytes from male Sprague Dawley rats and a pool of 50 mixed gender humans (BioIVT, Baltimore, MD). The incubation mixtures were prepared by mixing 250 μL of pre-warmed KHB (Krebs-Henseleit buffer) containing 2×10^6 cell/mL of hepatocytes with 250 μL of pre-warmed KHB buffer containing 2 μM of test compounds in a 48-well plate, giving a final concentration of 1 μM test compound (0.1% DMSO) and 1×10^6 cell/mL of hepatocytes. The reaction mixture was incubated at 37 degrees C. A 50 μL aliquot of incubation mixture was taken at time points (0, 15, 30, 60, 120 and 240 minutes) and transferred into a 96-well plate containing 300 μL ice-cold acetonitrile (containing 30 ng/mL of labetalol and 10 ng/mL of Naltrexone-d3 as internal standards) and immediately placed in ice to terminate the reaction. Samples were centrifuged, and supernatants were transferred into 96-well plates for liquid chromatography with tandem mass spectrometry (LC-MS/MS) analysis to monitor the depletion of the test compound.
(§2) Data was calculated as percent remaining by assuming zero-minute time point peak area ratio (analyte/IS) as 100% and dividing remaining time point peak area ratios by zero-minute time point peak area ratio. Data were fitted to a first-order decay model to determine half-life. From a plot of log (ln) peak area against time, the slope of the line was determined. Subsequently, half-life (T1/2) and intrinsic clearance (CLint) were calculated using the equations below: Elimination rate constant (k)=(−slope) Half-life (T1/2)min=0.693/k Intrinsic Clearance (CLint) (mL/min/million cells)=(V×0.693)/T1/2 V=incubation volume mL/number of cells The in vitro T1/2 was converted to in vitro intrinsic clearance (CLint,hep) in units of mL/min/kg using the formula shown below:
(§3) [formula] The in vitro intrinsic clearance (CLint,hep) was scaled to in vivo hepatic clearance (CL,hep) using the following equation which was adapted from a well-stirred model.
(§4) [formula] where Q is the liver blood flow and fu is the fraction unbound (assumed to be unity in this case). All parameters used in the calculation are shown below (Table 4).
(§5) The extraction ratio (ER) was calculated by dividing the hepatic clearance of a compound to the liver blood flow. The data reported in Table 5 were obtained according to the human hepatocytes stability assay described above.
Turning to `CS(=O)(=O)N[C@H]1CCCN2CCCOc3ccccc3C3CCC(CC3)OCC12` (stereo partly drawn) [Compound 5], the “Extraction Ratio (ER)” value was found to be 0.90. As to `CS(=O)(=O)N[C@H]1CCCN2CC(F)(F)Oc3ccccc3C3CCC(CC3)OCC12` (stereo partly drawn) [Compound 41], the “Extraction Ratio (ER)” value came to 0.90.

Tested on in another data set: not listed separately
The experiment in a line: Hepatocytes stability assay (human hepatocytes). It counts as in vitro ADME. To be noted: both sexes, cryopreserved hepatocytes, 1 μM test compound, 1×10^6 cell/mL, 37 degrees C, read-out: CLint (μL/min/million cells). Here is the method: as §1, §2, §3, §4, §5
On to `CS(=O)(=O)N[C@H]1CCCN2CCCOc3ccccc3C3CCC(CC3)OCC12` (stereo partly drawn) [Compound 5], for which the hepatocyte CLint at 1 μM stood at 63 µL/min/1e6 cells. Same read-out and setting: as for `CS(=O)(=O)N[C@H]1CCCN2CC(F)(F)Oc3ccccc3C3CCC(CC3)OCC12` (stereo partly drawn) [Compound 41], the figure is 60 µL/min/1e6 cells.

Source of the values: US12054495B2, “Substituted macrocyclic compounds and related methods of treatment” (Alkermes, Inc., priority 2019, dated 2024).
